These results are taken from patent US8507686B2, “Substituted bicyclic methyl azetidines as sphingosine-1 phosphate receptors modulators” (Allergan, Inc., priority 2011, dated 2013).

By EC50 is commonly meant the concentration giving half of the maximal effect.

This experiment has as its target T1, human S1P1 receptor (Homo sapiens, UniProt P21453).
T1 construct: expressed in transfected cells; host or cells: cells stably expressing the S1P1 receptor; membranes used
Briefly: GTP γ35S binding assay for S1P1 activity. It counts as biochemical. As to conditions: membranes of cells stably expressing the S1P1 receptor; agonist-induced GTP γ35S binding; read-out: EC50 at the S1P1 receptor from GTP γ35S. The procedure: Novel compounds were synthesized and tested for S1P1 activity using the GTP γ^35S binding assay. These compounds may be assessed for their ability to activate or block activation of the human S1P1 receptor in cells stably expressing the S1P1 receptor. […] binding was measured in the medium containing (mM) HEPES 25, pH 7.4, MgCl2 10, NaCl 100, dithitothreitol 0.5, digitonin 0.003%, 0.2 nM GTP γ^35S, and 5 μg membrane protein in a volume of 150 μl. Test compounds were included in the concentration range from 0.08 to 5,000 nM unless indicated otherwise. Membranes were incubated with 100 μM 5′-adenylylimmidodiphosphate for 30 min, and subsequently with 10 μM GDP for 10 min on ice. Drug solutions and membrane were mixed, and then reactions were initiated by adding GTP γ^35 S and continued for 30 min at 25° C. Reaction mixtures were filtered over Whatman GF/B filters under vacuum, and washed three times with 3 mL of ice-cold buffer (HEPES 25, pH7.4, MgCl2 10 and NaCl 100). Filters were dried and mixed with scintillant, and counted for ^35S activity using a β-counter. Agonist-induced GTP γ^35 S binding was obtained by subtracting that in the absence of agonist. Binding data were analyzed using a non-linear regression method. In case of antagonist assay, the reaction mixture contained 10 nM […] in the presence of test antagonist at concentrations ranging from 0.08 to 5000 nM.

T1 sequence (P21453 whole entry): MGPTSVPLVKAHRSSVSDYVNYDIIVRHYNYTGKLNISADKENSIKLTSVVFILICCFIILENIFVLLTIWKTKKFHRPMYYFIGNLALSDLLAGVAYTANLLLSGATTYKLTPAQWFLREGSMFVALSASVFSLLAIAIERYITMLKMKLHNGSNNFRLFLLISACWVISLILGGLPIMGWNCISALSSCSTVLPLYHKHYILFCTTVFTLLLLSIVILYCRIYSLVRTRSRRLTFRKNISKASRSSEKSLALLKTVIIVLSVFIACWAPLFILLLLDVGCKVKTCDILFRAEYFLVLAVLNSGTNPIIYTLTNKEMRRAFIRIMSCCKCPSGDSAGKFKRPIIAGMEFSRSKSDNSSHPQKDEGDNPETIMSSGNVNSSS

Turning to `O=C(O)C1CN(Cc2ccc(C#CCCCCc3ccccc3)c3cccnc23)C1` [Compound 1], the EC50 worked out at 390 nM.
